Source: patent US6358885B1, “Substituted phenylheterocyclic herbicides” (Mississippi State University, priority 1992, dated 2002)

Key:
Assay in all cases: Test B preemergence/postemergence greenhouse plant response rating 0 to 10
[1] = system: cocklebur; type: in vivo, Xanthium pensylvanicum; conditions: for Plant response rating, Cocklebur: 0 to 10 scale
How it was run: (§1)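 Test chemicals, dissolved in a non-phytotoxic solvent, were applied to soil at planting and, at the same time, over foliage of seedlings at the one to four leaf stage.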

[2] = system: wild buckwheat; type: in vivo, Polygonum convolvulus; conditions: 0 to 10 scale
How it was run: as §1

[3] = system: velvetleaf; type: in vivo, Abutilon theophrasti; conditions: 0 to 10 scale
How it was run: as §1

[4] = system: morningglory; type: in vivo, Ipomoea hederacea; conditions: 0 to 10 scale
How it was run: as §1

[5] = system: barley; type: in vivo, Hordeum vulgare; conditions: for Plant response rating, Barley: 0 to 10 scale
How it was run: as §1

[6] = system: sorghum; type: in vivo, Sorghum bicolor; conditions: 0 to 10 scale
How it was run: as §1

[7] = system: chickweed; type: in vivo, Stellaria media; conditions: for Plant response rating, Chickweed: 0 to 10 scale
How it was run: as §1

[8] = system: bedstraw; type: in vivo, Galium aparine; conditions: for Plant response rating, Bedstraw: 0 to 10 scale
How it was run: as §1

[9] = system: soybean; type: in vivo, Glycine max; conditions: 0 to 10 scale
How it was run: as §1

[10] = system: sugar beet; type: in vivo, Beta vulgaris; conditions: 0 to 10 scale
How it was run: as §1

Fc1cc(Cl)c(OC2CCCC2)cc1-c1nn2c(c1Cl)CCCC2 [Compound 24]
0: Plant response rating, Cocklebur ([1]; PREEMERGENCE, Rate 50 g/ha) | Plant response rating, Barley ([5]; PREEMERGENCE, Rate 50 g/ha) | Plant response rating, Barley ([5]; Rate 200 g/ha, PREEMERGENCE) | Plant response rating, Sorghum ([6]; PREEMERGENCE, Rate 50 g/ha) | Plant response rating, Chickweed ([7]; PREEMERGENCE, Rate 50 g/ha) | Plant response rating, Soybean ([9]; PREEMERGENCE, Rate 50 g/ha)
5: Plant response rating, Wild buckwheat ([2]; Rate 200 g/ha, PREEMERGENCE) | Plant response rating, Morningglory ([4]; Rate 200 g/ha, PREEMERGENCE) | Plant response rating, Sorghum ([6]; POSTEMERGENCE, Rate 50 g/ha) | Plant response rating, Bedstraw ([8]; Rate 200 g/ha, PREEMERGENCE)
3: Plant response rating, Wild buckwheat ([2]; PREEMERGENCE, Rate 50 g/ha) | Plant response rating, Chickweed ([7]; Rate 200 g/ha, PREEMERGENCE) | Plant response rating, Bedstraw ([8]; PREEMERGENCE, Rate 50 g/ha)
1: Plant response rating, Cocklebur ([1]; Rate 200 g/ha, PREEMERGENCE) | Plant response rating, Velvetleaf ([3]; PREEMERGENCE, Rate 50 g/ha) | Plant response rating, Morningglory ([4]; PREEMERGENCE, Rate 50 g/ha) | Plant response rating, Sorghum ([6]; Rate 200 g/ha, PREEMERGENCE)
2: Plant response rating, Soybean ([9]; Rate 200 g/ha, PREEMERGENCE)
9: Plant response rating, Cocklebur ([1]; POSTEMERGENCE, Rate 200 g/ha) | Plant response rating, Velvetleaf ([3]; Rate 200 g/ha, PREEMERGENCE) | Plant response rating, Morningglory ([4]; POSTEMERGENCE, Rate 50 g/ha) | Plant response rating, Chickweed ([7]; POSTEMERGENCE, Rate 200 g/ha) | Plant response rating, Sugar beet ([10]; PREEMERGENCE, Rate 50 g/ha) | Plant response rating, Sugar beet ([10]; Rate 200 g/ha, PREEMERGENCE)
7: Plant response rating, Bedstraw ([8]; POSTEMERGENCE, Rate 200 g/ha)
4: Plant response rating (0 to 10 scale), Barley ([5]; POSTEMERGENCE, Rate 50 g/ha) | Plant response rating, Barley ([5]; POSTEMERGENCE, Rate 200 g/ha)
8: Plant response rating (0 to 10 scale), Cocklebur ([1]; POSTEMERGENCE, Rate 50 g/ha) | Plant response rating, Morningglory ([4]; POSTEMERGENCE, Rate 200 g/ha) | Plant response rating (0 to 10 scale), Chickweed ([7]; POSTEMERGENCE, Rate 50 g/ha) | Plant response rating, Soybean ([9]; POSTEMERGENCE, Rate 200 g/ha)
6: Plant response rating, Sorghum ([6]; POSTEMERGENCE, Rate 200 g/ha) | Plant response rating (0 to 10 scale), Bedstraw ([8]; POSTEMERGENCE, Rate 50 g/ha) | Plant response rating, Soybean ([9]; POSTEMERGENCE, Rate 50 g/ha)
10: Plant response rating, Wild buckwheat ([2]; POSTEMERGENCE, Rate 50 g/ha) | Plant response rating, Wild buckwheat ([2]; POSTEMERGENCE, Rate 200 g/ha) | Plant response rating, Velvetleaf ([3]; POSTEMERGENCE, Rate 50 g/ha) | Plant response rating, Velvetleaf ([3]; POSTEMERGENCE, Rate 200 g/ha) | Plant response rating, Sugar beet ([10]; POSTEMERGENCE, Rate 50 g/ha) | Plant response rating, Sugar beet ([10]; POSTEMERGENCE, Rate 200 g/ha)

CCCOc1cc(-c2nn3c(c2Cl)CCCC3)c(F)cc1Cl [Compound 23]
10: Plant response rating, Cocklebur ([1]; POSTEMERGENCE, Rate 200 g/ha) | Plant response rating, Wild buckwheat ([2]; POSTEMERGENCE, Rate 50 g/ha) | Plant response rating, Wild buckwheat ([2]; POSTEMERGENCE, Rate 200 g/ha) | Plant response rating, Wild buckwheat ([2]; Rate 200 g/ha, PREEMERGENCE) | Plant response rating, Velvetleaf ([3]; POSTEMERGENCE, Rate 200 g/ha) | Plant response rating, Velvetleaf ([3]; Rate 200 g/ha, PREEMERGENCE) | Plant response rating, Morningglory ([4]; POSTEMERGENCE, Rate 200 g/ha) | Plant response rating, Sugar beet ([10]; POSTEMERGENCE, Rate 50 g/ha) | Plant response rating, Sugar beet ([10]; POSTEMERGENCE, Rate 200 g/ha) | Plant response rating, Sugar beet ([10]; Rate 200 g/ha, PREEMERGENCE)
1: Plant response rating, Velvetleaf ([3]; PREEMERGENCE, Rate 50 g/ha) | Plant response rating, Soybean ([9]; PREEMERGENCE, Rate 50 g/ha)
0: Plant response rating, Cocklebur ([1]; PREEMERGENCE, Rate 50 g/ha) | Plant response rating, Wild buckwheat ([2]; PREEMERGENCE, Rate 50 g/ha) | Plant response rating, Barley ([5]; PREEMERGENCE, Rate 50 g/ha) | Plant response rating, Barley ([5]; Rate 200 g/ha, PREEMERGENCE) | Plant response rating, Sorghum ([6]; PREEMERGENCE, Rate 50 g/ha) | Plant response rating, Chickweed ([7]; PREEMERGENCE, Rate 50 g/ha)
2: Plant response rating, Sorghum ([6]; Rate 200 g/ha, PREEMERGENCE)
4: Plant response rating, Sorghum ([6]; POSTEMERGENCE, Rate 50 g/ha)
8: Plant response rating (0 to 10 scale), Cocklebur ([1]; POSTEMERGENCE, Rate 50 g/ha) | Plant response rating, Cocklebur ([1]; Rate 200 g/ha, PREEMERGENCE) | Plant response rating, Morningglory ([4]; POSTEMERGENCE, Rate 50 g/ha) | Plant response rating, Morningglory ([4]; Rate 200 g/ha, PREEMERGENCE) | Plant response rating, Soybean ([9]; POSTEMERGENCE, Rate 50 g/ha)
6: Plant response rating, Sorghum ([6]; POSTEMERGENCE, Rate 200 g/ha) | Plant response rating, Chickweed ([7]; Rate 200 g/ha, PREEMERGENCE)
3: Plant response rating, Morningglory ([4]; PREEMERGENCE, Rate 50 g/ha) | Plant response rating (0 to 10 scale), Barley ([5]; POSTEMERGENCE, Rate 50 g/ha) | Plant response rating, Barley ([5]; POSTEMERGENCE, Rate 200 g/ha)
9: Plant response rating, Velvetleaf ([3]; POSTEMERGENCE, Rate 50 g/ha) | Plant response rating, Chickweed ([7]; POSTEMERGENCE, Rate 200 g/ha) | Plant response rating, Bedstraw ([8]; POSTEMERGENCE, Rate 200 g/ha) | Plant response rating, Soybean ([9]; POSTEMERGENCE, Rate 200 g/ha) | Plant response rating, Sugar beet ([10]; PREEMERGENCE, Rate 50 g/ha)
7: Plant response rating (0 to 10 scale), Bedstraw ([8]; POSTEMERGENCE, Rate 50 g/ha) | Plant response rating, Soybean ([9]; Rate 200 g/ha, PREEMERGENCE)
5: Plant response rating, Bedstraw ([8]; PREEMERGENCE, Rate 50 g/ha) | Plant response rating, Bedstraw ([8]; Rate 200 g/ha, PREEMERGENCE)
